From patent US9409884B2 (Rigel Pharmaceuticals, Inc., priority 2012, dated 2016)
Structures can show the parent of a compound that is named as a salt.

Target: AMPK
Test: AMPK activation, enzyme-linked immunosorbent assay
Type: biochemical
Conditions: Table 8, compounds of Table 1
In short: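 AMPK activation by test compounds was measured by enzyme-linked immunosorbent assay.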

## O=C(NC1CCN(Cc2ccccc2)CC1)c1cc2cc(OC3CCN(c4ccc(C(F)(F)F)cc4)CC3)ccc2o1 [Compound 1-75, N-(1-benzylpiperidin-4-yl)-5-(1-(4-(trifluoromethyl)phenyl)piperidin-4-yloxy)benzofuran-2-carboxamide]
  EC50: < 100 nM

## O=C(NC1CCN(Cc2ccncc2)CC1)c1cc2cc(OC3CCN(c4ccc(C(F)(F)F)cc4)CC3)ccc2o1 [Compound 1-76, N-(1-(pyridin-4-ylmethyl)piperidin-4-yl)-5-(1-(4-(trifluoromethyl)phenyl)piperidin-4-yloxy)benzofuran-2-carboxamide]
  EC50: 100 to 500 nM

## O=C(NC1CCN(Cc2ccncc2)CC1)c1cc2cc(OC3CCN(Cc4ccc(Cl)cc4)CC3)ccc2o1 [Compound 1-77, 5-(1-(4-chlorobenzyl)piperidin-4-yloxy)-N-(1-(pyridin-4-ylmethyl)piperidin-4-yl)benzofuran-2-carboxamide]
  EC50: 100 to 500 nM

## O=C(NC1CCN(Cc2ccncc2)CC1)c1cc2cc(OC3CCN(c4ccc(OC(F)(F)F)cc4)CC3)ccc2o1 [Compound 1-78, N-(1-(pyridin-4-ylmethyl)piperidin-4-yl)-5-(1-(4-(trifluoromethoxy)phenyl)piperidin-4-yloxy)benzofuran-2-carboxamide]
  EC50: < 100 nM

## N#Cc1ccc(CN2CCC(Oc3ccc4oc(C(=O)NC5CCN(Cc6ccncc6)CC5)cc4c3)CC2)cc1 [Compound 1-79, 5-(1-(4-cyanobenzyl)piperidin-4-yloxy)-N-(1-(pyridin-4-ylmethyl)piperidin-4-yl)benzofuran-2-carboxamide]
  EC50: 100 to 500 nM

## O=C(NC1CCN(Cc2ccccc2)CC1)c1cc2cc(OC3CCN(c4ccc(OC(F)(F)F)cc4)CC3)ccc2o1 [Compound 1-80, N-(1-benzylpiperidin-4-yl)-5-(1-(4-(trifluoromethoxy)phenyl)piperidin-4-yloxy)benzofuran-2-carboxamide]
  EC50: < 100 nM

## CC(C)(C)OC(=O)N1CCC(NC(=O)c2cc3ccc(OC4CCN(c5ccc(OC(F)(F)F)cc5)CC4)cc3o2)CC1 [Compound 1-81, tert-butyl 4-(6-(1-(4-(trifluoromethoxy)phenyl)piperidin-4-yloxy)benzofuran-2-carboxamido) piperidine-1-carboxylate]
  EC50: 100 to 500 nM

## CC(C)(C)OC(=O)N1CCC(NC(=O)c2cc3ccc(OC4CCN(c5ccc(C(F)(F)F)cc5)CC4)cc3o2)CC1 [Compound 1-82, tert-butyl 4-(6-(1-(4-(trifluoromethyl)phenyl)piperidin-4-yloxy)benzofuran-2-carboxamido) piperidine-1-carboxylate]
  EC50: 100 to 500 nM

## O=C(NC1CCNCC1)c1cc2ccc(OC3CCN(c4ccc(OC(F)(F)F)cc4)CC3)cc2o1 [Compound 1-83, N-(piperidin-4-yl)-6-(1-(4-(trifluoromethoxy)phenyl)piperidin-4-yloxy)benzofuran-2-carboxamide]
  EC50: 100 to 500 nM

## O=C(NC1CCNCC1)c1cc2ccc(OC3CCN(c4ccc(C(F)(F)F)cc4)CC3)cc2o1 [Compound 1-84, N-(piperidin-4-yl)-6-(1-(4-(trifluoromethyl)phenyl)piperidin-4-yloxy)benzofuran-2-carboxamide]
  EC50: 5000 to 10000 nM

## CC(C)(C)OC(=O)N1CCC(NC(=O)c2cc3cc(OC4CCN(c5ccc(C(F)(F)F)cc5)CC4)ccc3o2)CC1 [Compound 1-85, tert-butyl 4-(5-(1-(4-(trifluoromethyl)phenyl)piperidin-4-yloxy)benzofuran-2-carboxamido) piperidine-1-carboxylate]
  EC50: 500 to 1000 nM

## O=C(NC1CCNCC1)c1cc2cc(OC3CCN(c4ccc(C(F)(F)F)cc4)CC3)ccc2o1 [Compound 1-86, N-(piperidin-4-yl)-5-(1-(4-(trifluoromethyl)phenyl)piperidin-4-yloxy)benzofuran-2-carboxamide]
  EC50: > 10000 nM

## O=C(NC1CCN(Cc2ccncc2)CC1)c1cc2ccc(OC3CCN(c4ccc(C(F)(F)F)cc4)CC3)cc2o1 [Compound 1-87, N-(1-(pyridin-4-ylmethyl)piperidin-4-yl)-6-(1-(4-(trifluoromethyl)phenyl)piperidin-4-yloxy)benzofuran-2-carboxamide]
  EC50: < 100 nM

## O=C(NC1CCN(Cc2ccncc2)CC1)c1cc2ccc(OC3CCN(c4ccc(OC(F)(F)F)cc4)CC3)cc2o1 [Compound 1-88, N-(1-(pyridin-4-ylmethyl)piperidin-4-yl)-6-(1-(4-(trifluoromethoxy)phenyl)piperidin-4-yloxy)benzofuran-2-carboxamide]
  EC50: < 100 nM

## N#Cc1ccc(CN2CCC(NC(=O)c3cc4ccc(OC5CCN(c6ccc(OC(F)(F)F)cc6)CC5)cc4o3)CC2)cc1 [Compound 1-89, N-(1-(4-cyanobenzyl)piperidin-4-yl)-6-(1-(4-(trifluoromethoxy)phenyl)piperidin-4-yloxy)benzofuran-2-carboxamide]
  EC50: < 100 nM

## N#Cc1ccc(CN2CCC(NC(=O)c3cc4ccc(OC5CCN(c6ccc(C(F)(F)F)cc6)CC5)cc4o3)CC2)cc1 [Compound 1-90, N-(1-(4-cyanobenzyl)piperidin-4-yl)-6-(1-(4-(trifluoromethyl)phenyl)piperidin-4-yloxy)benzofuran-2-carboxamide]
  EC50: < 100 nM

## O=C(NC1CCN(Cc2ccc(F)cc2)CC1)c1cc2ccc(OC3CCN(c4ccc(C(F)(F)F)cc4)CC3)cc2o1 [Compound 1-91, N-(1-(4-fluorobenzyl)piperidin-4-yl)-6-(1-(4-(trifluoromethyl)phenyl)piperidin-4-yloxy)benzofuran-2-carboxamide]
  EC50: > 10000 nM

## O=C(NC1CCN(Cc2ccccn2)CC1)c1cc2ccc(OC3CCN(c4ccc(OC(F)(F)F)cc4)CC3)cc2o1 [Compound 1-92, N-(1-(pyridin-2-ylmethyl)piperidin-4-yl)-6-(1-(4-(trifluoromethoxy)phenyl)piperidin-4-yloxy)benzofuran-2-carboxamide]
  EC50: 500 to 1000 nM

## O=C(NC1CCN(Cc2ccccn2)CC1)c1cc2ccc(OC3CCN(c4ccc(C(F)(F)F)cc4)CC3)cc2o1 [Compound 1-93, N-(1-(pyridin-2-ylmethyl)piperidin-4-yl)-6-(1-(4-(trifluoromethyl)phenyl)piperidin-4-yloxy)benzofuran-2-carboxamide]
  EC50: 100 to 500 nM

## O=C(NC1CCN(Cc2ccc(F)cc2)CC1)c1cc2ccc(OC3CCN(c4ccc(OC(F)(F)F)cc4)CC3)cc2o1 [Compound 1-94, N-(1-(4-fluorobenzyl)piperidin-4-yl)-6-(1-(4-(trifluoromethoxy)phenyl)piperidin-4-yloxy)benzofuran-2-carboxamide]
  EC50: < 100 nM

## O=C(NC1CCN(Cc2cccnc2)CC1)c1cc2ccc(OC3CCN(c4ccc(OC(F)(F)F)cc4)CC3)cc2o1 [Compound 1-95, N-(1-(pyridin-3-ylmethyl)piperidin-4-yl)-6-(1-(4-(trifluoromethoxy)phenyl)piperidin-4-yloxy)benzofuran-2-carboxamide]
  EC50: < 100 nM

## O=C(NC1CCN(Cc2cccnc2)CC1)c1cc2ccc(OC3CCN(c4ccc(C(F)(F)F)cc4)CC3)cc2o1 [Compound 1-96, N-(1-(pyridin-3-ylmethyl)piperidin-4-yl)-6-(1-(4-(trifluoromethyl)phenyl)piperidin-4-yloxy)benzofuran-2-carboxamide]
  EC50: < 100 nM

## N#Cc1ccccc1CN1CCC(NC(=O)c2cc3ccc(OC4CCN(c5ccc(OC(F)(F)F)cc5)CC4)cc3o2)CC1 [Compound 1-97, N-(1-(2-cyanobenzyl)piperidin-4-yl)-6-(1-(4-(trifluoromethoxy)phenyl)piperidin-4-yloxy)benzofuran-2-carboxamide]
  EC50: < 100 nM

## N#Cc1ccccc1CN1CCC(NC(=O)c2cc3ccc(OC4CCN(c5ccc(C(F)(F)F)cc5)CC4)cc3o2)CC1 [Compound 1-98, N-(1-(2-cyanobenzyl)piperidin-4-yl)-6-(1-(4-(trifluoromethyl)phenyl)piperidin-4-yloxy)benzofuran-2-carboxamide]
  EC50: < 100 nM

## O=C(NC1CCN(Cc2ccc(C(F)(F)F)cc2)CC1)c1cc2ccc(OC3CCN(c4ccc(C(F)(F)F)cc4)CC3)cc2o1 [Compound 1-99, N-(1-(4-(trifluoromethyl)benzyl)piperidin-4-yl)-6-(1-(4-(trifluoromethyl)phenyl)piperidin-4-yloxy)benzofuran-2-carboxamide]
  EC50: < 100 nM

## O=C(NC1CCN(Cc2ccc(C(F)(F)F)cc2)CC1)c1cc2cc(OC3CCN(c4ccc(C(F)(F)F)cc4)CC3)ccc2o1 [Compound 1-100, N-(1-(4-(trifluoromethyl)benzyl)piperidin-4-yl)-5-(1-(4-(trifluoromethyl)phenyl)piperidin-4-yloxy)benzofuran-2-carboxamide]
  EC50: < 100 nM

## O=C(NC1CCN(Cc2cccnc2)CC1)c1cc2cc(OC3CCN(c4ccc(C(F)(F)F)cc4)CC3)ccc2o1 [Compound 1-101, N-(1-(pyridin-3-ylmethyl)piperidin-4-yl)-5-(1-(4-(trifluoromethyl)phenyl)piperidin-4-yloxy)benzofuran-2-carboxamide]
  EC50: < 100 nM

## CN(C(=O)c1cc2cc(OC3CCN(c4ccc(C(F)(F)F)cc4)CC3)ccc2o1)C1CCN(C(=O)OC(C)(C)C)CC1 [Compound 1-102, tert-butyl 4-(N-methyl-5-(1-(4-(trifluoromethyl)phenyl)piperidin-4-yloxy)benzofuran-2-carboxamido) piperidine-1-carboxylate]
  EC50: 1000 to 5000 nM

## CN(C(=O)c1cc2cc(OC3CCN(c4ccc(C(F)(F)F)cc4)CC3)ccc2o1)C1CCNCC1 [Compound 1-103, N-methyl-N-(piperidin-4-yl)-5-(1-(4-(trifluoromethyl)phenyl)piperidin-4-yloxy)benzofuran-2-carboxamide]
  EC50: 1000 to 5000 nM

## CN(C(=O)c1cc2cc(OC3CCN(c4ccc(C(F)(F)F)cc4)CC3)ccc2o1)C1CCN(Cc2ccncc2)CC1 [Compound 1-104, N-methyl-N-(1-(pyridin-4-ylmethyl)piperidin-4-yl)-5-(1-(4-(trifluoromethyl)phenyl)piperidin-4-yloxy)benzofuran-2-carboxamide]
  EC50: 100 to 500 nM

## O=C(NC1CCN(Cc2ccncc2)CC1)c1cc2cc(OC3CCN(c4ccc(C(F)(F)F)cc4)CC3)ccc2o1 [Compound 1-105, N-(1-(pyridin-4-ylmethyl)piperidin-4-yl)-5-(1-(4-(trifluoromethyl)phenyl)piperidin-4-yloxy)benzofuran-2-carboxamide, formate salt]
Formate salt
  EC50: < 100 nM
